Assay results published in patent US8030354B2, “Substituted biphenyl GPR40 modulators” (Amgen Inc., priority 2007, dated 2011).

What was measured:
[1] = target: T1, GPR40 (Homo sapiens, UniProt O14842); assay: Inositol phosphate accumulation assay (A9_GPR40 cells); assay type: cell-based; parameters: expressed in transfected cells; host or cells: CHO cells stably transfected with GPR40 and aequorin; conditions: inositol phosphate assay, A9_GPR40 cells, 1 hour; read-out: IP3 EC50
Procedure, shortened: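 [^3H] inositol phosphate accumulation was measured by SPA after 1 h compound exposure at 37° C in HBSS/10 mM LiCl containing HSA, ending with a 20 mM formic acid quench. The GPR40-transfected A9 cells had first been labelled overnight (16 h) with 1 μCi/mL ^3H-inositol.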

[2] = target: T1, GPR40; assay: Cell-based aequorin assay (CHO cells stably expressing GPR40 and aequorin); parameters: expressed in transfected cells; host or cells: CHO cells stably transfected with GPR40 and aequorin; conditions: activation of human GPR40, CHO cells, 0.01% HSA
Procedure, shortened: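 CHO cells stably co-expressing GPR40 and aequorin, loaded with coelenterazine (1 ug/mL, 2 h, room temperature) in H/HBSS with 20 mM Hepes and 0.01% fatty acid-free HSA. Serially diluted compounds added; luminescence recorded over 20 s. EC50 from dose-response of maximum relative light units.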

T1 sequence (O14842 whole entry): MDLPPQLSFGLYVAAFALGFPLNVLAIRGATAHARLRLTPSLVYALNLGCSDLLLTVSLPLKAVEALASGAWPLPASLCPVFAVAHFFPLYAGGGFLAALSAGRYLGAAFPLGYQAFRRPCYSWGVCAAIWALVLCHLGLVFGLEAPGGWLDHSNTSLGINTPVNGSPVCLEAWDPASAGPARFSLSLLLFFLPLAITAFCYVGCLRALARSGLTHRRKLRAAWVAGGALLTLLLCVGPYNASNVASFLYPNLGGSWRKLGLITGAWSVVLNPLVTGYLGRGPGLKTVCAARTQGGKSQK

SMILES | EC50 [1] [nM] | EC50 [2] [nM]
COc1ccc(F)c(-c2ccc(COc3cccc([C@@H](CC(=O)O)C4CC4)c3)cc2[C@H](OC)C(C)(C)C)c1 (single isomer, unassigned) [Example 66.24] | 100 to 1000 | 1000 to 10000
CCOc1ccc(F)c(-c2ccc(COc3cccc([C@@H](CC(=O)O)C4CC4)c3)cc2[C@@H]2CCCC2(C)C)c1 (single isomer, unassigned) [Example 66.25] | 1000 to 10000 | 1000 to 10000
CCOc1ccc(F)c(-c2ccc(COc3cccc(C(CC(=O)O)C4CC4)c3)cc2C2CCCC2(C)C)c1 (single isomer, unassigned) [Example 66.26] | 10 to 100 | 100 to 1000
COc1ccc(F)c(-c2ccc(COc3cccc([C@@H](CC(=O)O)C4CC4)c3)cc2[C@@H](OCc2ccccc2)C(C)(C)C)c1 (single isomer, unassigned) [Example 66.28] | < 10 | 100 to 1000
COc1ccc(F)c(-c2ccc(COc3cccc([C@@H](CC(=O)O)C4CC4)c3)cc2[C@H](F)C(C)(C)C)c1 (single isomer, unassigned) [Example 66.31] | 10 to 100 | 100 to 1000
COC(c1cc(COc2cccc(C(CC(=O)O)C3CC3)c2)ccc1-c1ccccc1F)C(C)(C)C (single isomer, unassigned) [Example 66.33] | 10 to 100 | 100 to 1000
COc1cc(-c2ccc(COc3cccc(C(CC(=O)O)C4CC4)c3)cc2C2=CCCCC2(C)C)c(F)cn1 (single isomer, unassigned) [Example 66.34, (3S)-3-Cyclopropyl-3-(3-(((3-(6,6-dimethyl-1-cyclohexen-1-yl)-4-(5-fluoro-2-(methyloxy)-4-pyridinyl)phenyl)methyl)oxy)phenyl)propanoic acid or (3S)-3-Cyclopropyl-3-(3-(((3-(6,6-dimethyl-1-cyclohexen-1-yl)-4-(5-fluoro-2-(methyloxy)-4-pyridinyl)phenyl)methyl)oxy)phenyl)propanoic acid] | 10 to 100 | 10 to 100
COc1cc(-c2ccc(COc3cccc(C(CC(=O)O)C4CC4)c3)cc2C2CCCC2(C)C)c(F)cn1 (single isomer, unassigned) [Example 66.36] | < 10 | 10 to 100
COc1cc(-c2ccc(COc3cccc([C@@H](CC(=O)O)C4CC4)c3)cc2[C@@H]2CCCC2(C)C)c(F)cn1 (single isomer, unassigned) [Example 66.37] | 10 to 100 | 100 to 1000
COc1ccc(F)c(-c2ccc(COc3cccc([C@@H](CC(=O)O)C4CC4)c3)cc2C2N(C)CCCC2(C)C)c1 (single isomer, unassigned) [Example 66.40, (S)-3-Cyclopropyl-3-{3-[2′-fluoro-5′-methoxy-2-(1,3,3-trimethyl-piperidin-2-yl)-biphenyl-4-ylmethoxy]-phenyl}-propionic acid or (R)-3-cyclopropyl-3-{3-[2′-fluoro-5′-methoxy-2-(1,3,3-trimethyl-piperidin-2-yl)-biphenyl-4-ylmethoxy]-phenyl}-propionic acid] | 10 to 100 | 100 to 1000
COCC(C)(C)C(OC)c1cc(COc2cccc(C(CC(=O)O)C3CC3)c2)ccc1-c1cc(OC)ccc1F (single isomer, unassigned) [Example 66.42, (S)-3-Cyclopropyl-3-{3-[2-(1,3-dimethoxy-2,2-dimethyl-propyl)-2′-fluoro-5′-methoxy-biphenyl-4-ylmethoxy]-phenyl}-propionic acid or (S)-3-Cyclopropyl-3-{3-[2-(1,3-dimethoxy-2,2-dimethyl-propyl)-2′-fluoro-5′-methoxy-biphenyl-4-ylmethoxy]-phenyl}-propionic acid] | 10 to 100 | 100 to 1000
COc1ccc(F)c(-c2cc(F)c(COc3cccc([C@@H](CC(=O)O)C4CC4)c3)cc2C2=CCCC2(C)C)c1 (single isomer, unassigned) [Example 66.43, (3S)-3-Cyclopropyl-3-(3-(((2-(5,5-dimethyl-1-cyclopenten-1-yl)-2′,5-difluoro-5′-(methyloxy)-1,1′-biphenyl-4-yl)methyl)oxy)phenyl)propanoic acid or (3R)-3-cyclopropyl-3-(3-(((2-(5,5-dimethyl-1-cyclopenten-1-yl)-2′,5-difluoro-5′-(methyloxy)-1,1′-biphenyl-4-yl)methyl)oxy)phenyl)propanoic acid] | < 10 | 100 to 1000
COc1ccc(F)c(-c2cc(F)c(COc3cccc([C@@H](CC(=O)O)C4CC4)c3)cc2[C@H]2CCCC2(C)C)c1 (single isomer, unassigned) [Example 66.44] | < 10 | 10 to 100
COc1ccc(F)c(-c2c(F)cc(COc3cccc([C@@H](CC(=O)O)C4CC4)c3)cc2C2=CCCC2(C)C)c1 (single isomer, unassigned) [Example 66.49, (3S)-3-Cyclopropyl-3-(3-(((2-(5,5-dimethyl-1-cyclopenten-1-yl)-2′,6-difluoro-5′-(methyloxy)-1,1′-biphenyl-4-yl)methyl)oxy)phenyl)propanoic acid or (3R)-3-cyclopropyl-3-(3-(((2-(5,5-dimethyl-1-cyclopenten-1-yl)-2′,6-difluoro-5′-(methyloxy)-1,1′-biphenyl-4-yl)methyl)oxy)phenyl)propanoic acid] | 10 to 100 | 100 to 1000
CC1(C)CCC=C1c1cc(COc2cccc([C@@H](CC(=O)O)C3CC3)c2)ccc1-c1cc(C(F)F)ccc1F (single isomer, unassigned) [Example 66.50, (3S)-3-Cyclopropyl-3-(3-(((5′-(difluoromethyl)-2-(5,5-dimethyl-1-cyclopenten-1-yl)-2′-fluoro-1,1′-biphenyl-4-yl)methyl)oxy)phenyl)propanoic acid or (3R)-3-cyclopropyl-3-(3-(((5′-(difluoromethyl)-2-(5,5-dimethyl-1-cyclopenten-1-yl)-2′-fluoro-1,1′-biphenyl-4-yl)methyl)oxy)phenyl)propanoic acid] | 100 to 1000 | 100 to 1000
CC1(C)CCC[C@@H]1c1cc(COc2cccc([C@@H](CC(=O)O)C3CC3)c2)ccc1-c1cc(C(F)F)ccc1F (single isomer, unassigned) [Example 66.51] | 10 to 100 | 100 to 1000
COc1ccc(F)c(-c2ccc(COc3cccc([C@@H](CC(=O)O)C4CC4)c3)cc2[C@H]2OCCCC2(C)C)c1 (single isomer, unassigned) [Example 66.54] | 10 to 100 | 100 to 1000
COc1ccc(F)c(-c2ccc(COc3cccc([C@@H](CC(=O)O)C4CC4)c3)cc2[C@H]2CCC[C@@H]2C)c1 (single isomer, unassigned) [Example 66.56] | 10 to 100 | 100 to 1000
CCC(C)(C)[C@H](OC)c1cc(COc2cccc([C@@H](CC(=O)O)C3CC3)c2)ccc1-c1cc(OC)ccc1F (single isomer, unassigned) [Example 66.62] | < 10 | 10 to 100
COc1ccc(F)c(-c2ccc(COc3cccc([C@@H](CC(=O)O)C4CC4)c3)cc2COC(C)(C)C)c1 (single isomer, unassigned) [Example 66.63, (3S)-3-Cyclopropyl-3-(3-(((2-(((1,1-dimethylethyl)oxy)methyl)-2′-fluoro-5′-(methyloxy)-1,1′-biphenyl-4-yl)methyl)oxy)phenyl)propanoic acid or (3R)-3-cyclopropyl-3-(3-(((2-(((1,1-dimethylethyl)oxy)methyl)-2′-fluoro-5′-(methyloxy)-1,1′-biphenyl-4-yl)methyl)oxy)phenyl)propanoic acid] | 1000 to 10000 | 1000 to 10000
